As a reminder, the melting point is the temperature, or range, at which the solid turns liquid.

Here are results for five molecules from US7378437B2, “Drugs for diabetes” (NICOX S.A., priority 2000, dated 2008).

Data set [1] relates to aorta of insulin-resistant rats. In words: Vasorelaxing effect in vitro on isolated aorta of insulin-resistant (fructose-rich diet) rats, precontracted with phenylephrine, with or without LNNA. As to conditions: for % Relaxation, Aorta with LNNA / % Relaxation, Aorta Without LNNA: phenylephrine 10 μM precontracted, percentage with respect to non insulin-resistant controls; for vasorelaxing effect in conditions of experimental diabetes (in words): aorta of insulin-resistant rats, in the presence and in absence of LNNA. It is filed as cell-based, rat. The method, then: To evaluate the strengthening effect of the drugs of the invention on the antidiabetic activity of insulin, animals (rats) are treated with a fructose rich diet (Am. J. Physiol. 275, R788-R792, 1998). In this way an insulinic resistance is induced in the animals.
The pharmacological test is a test in vitro and consists in determining the vasorelaxing activity induced by the products of the invention, measured on an isolated vessel (aorta) taken from animals treated as above mentioned. The test in vitro is carried out both in the presence and in absence of LNNA (N-nitro-L-Arginine), which is an irreversible inhibitor of the nitric oxide synthethases, to verify if the vasorelaxing effect depends on the protective endogenous substances (nitric oxide).
The capability of the compounds of the invention to exert a vasorelaxing effect both in the presence and in absence of vasoprotective substances in such conditions of experimental diabetes, (animals with a fructose rich diet, and treated with or without LNNA), is an index which allows to evaluate the antidiabetic action of the tested compound.
In the pharmacological experiment isolated vessels are used, taken from rats which have developed, as said, an insulinic resistance condition induced by administering for 4 weeks a fructose rich diet.
Male Sprague Dawley rats having an average weight equal to 150-200 g were sacrificed and bled. The abdomi-nal aorta was removed and suitably prepared for determining the myorelaxing activity in vitro according to the method described by Vogel G. H. et al., Drug Discovery Evaluation-Pharmacological Assays page 32, 1996.
A part of the specimen is treated with LNNA.
The tissues are precontracted with phenylephrine (10 μM) and the relaxation was determined in the presence or in absence of the compounds of the invention or of the reference standards. […] The results are reported in Table 1 and are expressed as a percentage with respect to the vasorelaxing effect measured in the controls.

With `CC(=O)Oc1ccccc1C(=O)OCc1cccc(CO[N+](=O)[O-])n1.Cl` [Ex. 1, 2-acetoxybenzoic acid 6-(nitroxymethyl)-2-methylpyridinyl ester hydrochloride], in data set [1] (concentration 10^−5 M), the “% Relaxation, Aorta with LNNA” value was determined as 70% and the “% Relaxation, Aorta Without LNNA” value stood at 93%.

With `CC(=O)Oc1ccccc1C(=O)Oc1cccc(CO[N+](=O)[O-])c1` [Ex. 2, 3-nitrooxymethylphenyl ester of the 2-acetoxybenzoic acid], in data set [1] (concentration 10^−4 M), the “% Relaxation, Aorta with LNNA” value was determined as 70% and the “% Relaxation, Aorta Without LNNA” value is on record as 70%.

Take `COc1ccc2c(c1)c(CC(=O)Oc1cccc(CO[N+](=O)[O-])c1)c(C)n2C(=O)c1ccc(Cl)cc1` [Ex. 3 comp., 1-(4-chlorobenzoyl)-5-methoxy-2-methyl-3-indolacetic acid 3′-(nitroxymethyl)phenyl ester, reference compound]: the “vasorelaxing effect in conditions of experimental diabetes (in words)” value in data set [1] is recorded as “did not result active”. Further, in data set [1] (concentration 10^−6 M), the “% Relaxation, Aorta with LNNA” value stood at 20% and the “% Relaxation, Aorta Without LNNA” value worked out at 20%.

`CC(=O)Oc1ccccc1C(=O)Oc1ccc(CO[N+](=O)[O-])cc1` [Ex. 6, 2-(acetyloxy)benzoic acid 4-(nitroxymethyl) phenyl ester] registered a melting point of 86 to 88 °C. In data set [1] (concentration 10^−5 M), the “% Relaxation, Aorta with LNNA” value is 65% and the “% Relaxation, Aorta Without LNNA” value stood at 90%.

For `CN(C)C(=N)N=C(N)N` [Metformin, reference compound], the “vasorelaxing effect in conditions of experimental diabetes (in words)” value in data set [1] is “active only in the absence of the inhibitor of the NO synthesis”. In addition, in data set [1] (concentration 10^−4 M), the “% Relaxation, Aorta with LNNA” value was 30% and the “% Relaxation, Aorta Without LNNA” value is given as 90%.
